Where two headings read alike, the source gives them in different places.
Assays:
in vitro [1] = conditions: mouse, att-20 cells
full length USP8 = molecular target: T1, full length USP8 (Homo sapiens, UniProt P40818); assay: Ub-Rho hydrolysis, dose response; format: biochemical
T1 sequence (P40818 1-1118): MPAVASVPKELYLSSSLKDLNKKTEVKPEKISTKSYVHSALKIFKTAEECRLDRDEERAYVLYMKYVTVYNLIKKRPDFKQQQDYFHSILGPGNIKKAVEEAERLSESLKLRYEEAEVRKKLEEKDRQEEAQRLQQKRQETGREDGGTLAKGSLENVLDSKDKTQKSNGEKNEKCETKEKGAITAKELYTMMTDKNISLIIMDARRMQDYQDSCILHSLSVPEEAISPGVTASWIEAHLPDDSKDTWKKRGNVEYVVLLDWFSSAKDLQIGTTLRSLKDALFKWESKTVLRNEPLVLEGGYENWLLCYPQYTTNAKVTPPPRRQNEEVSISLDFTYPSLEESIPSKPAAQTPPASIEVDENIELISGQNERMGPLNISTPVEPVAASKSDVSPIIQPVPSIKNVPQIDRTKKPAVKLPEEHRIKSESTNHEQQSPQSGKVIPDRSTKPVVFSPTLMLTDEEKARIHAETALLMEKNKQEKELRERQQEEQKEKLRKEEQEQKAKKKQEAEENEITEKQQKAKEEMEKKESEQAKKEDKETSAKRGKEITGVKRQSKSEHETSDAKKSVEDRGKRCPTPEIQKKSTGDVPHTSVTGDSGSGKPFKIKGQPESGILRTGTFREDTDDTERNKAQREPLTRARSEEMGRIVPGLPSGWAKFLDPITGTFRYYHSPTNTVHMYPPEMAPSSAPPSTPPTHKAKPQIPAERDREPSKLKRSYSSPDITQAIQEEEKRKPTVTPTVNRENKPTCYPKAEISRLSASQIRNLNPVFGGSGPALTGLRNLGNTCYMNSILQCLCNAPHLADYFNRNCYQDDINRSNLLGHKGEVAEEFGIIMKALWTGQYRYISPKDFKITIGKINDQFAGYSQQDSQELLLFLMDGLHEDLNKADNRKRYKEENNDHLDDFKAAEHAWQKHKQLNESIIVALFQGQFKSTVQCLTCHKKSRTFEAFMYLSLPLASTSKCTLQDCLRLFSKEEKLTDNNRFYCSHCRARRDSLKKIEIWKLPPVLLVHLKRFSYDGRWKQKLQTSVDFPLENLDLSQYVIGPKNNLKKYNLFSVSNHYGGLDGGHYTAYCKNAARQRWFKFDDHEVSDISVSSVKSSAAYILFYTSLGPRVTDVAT

in vitro [2] = assay: in vitro; set-up: species or system AtT-20; conditions: mouse, att-20 cells, AtT-20 cell viability at 25µM, % of control
in vitro [3] = conditions: mouse, att-20 cells; remark: listed apart in the source
AtT-20 = assay: in vitro; conditions: Ambinter Amb2704313 batch; 24 h

Work on Cc1ccc(NC(=O)Cn2ccccc2=O)c(OCc2ccccc2)c1 [ZINC55784788] yielded a viability at 24 h, 25 µM (in vitro [1]) of 96%.

In the case of Cc1ccc(NC(=O)c2cc(I)cc(I)c2O)cc1 [ZINC4014108], the IC50 (full length USP8; 0.1 µM Ub-Rho) is reported as 14.6 µM and the viability at 24 h, 25 µM (in vitro [2]) is reported as 93.5%.

O=C(Nc1cc(Cl)cc(Cl)c1O)c1c(O)c(Cl)cc(Cl)c1Cl [Oxyclozanide] gave a viability at 24 h, 25 µM (in vitro [3]) of 98.1%.

For O=C(Nc1ccccc1)c1ccccc1O [salicylanilide backbone], the IC50 (full length USP8) was greater than 50 µM.

With O=C(Nc1ccc(Cl)cc1Cl)c1cc(I)cc(I)c1O [ZINC4181894] the viability at 24 h, 25 µM (in vitro [2]) was 89.6%.

O=C(Nc1ccc(O)cc1)c1cc(I)ccc1O [ZINC194061705] showed a viability at 24 h, 25 µM (in vitro [1]) of 107%.

O=C(Nc1ccc(Cl)cc1)c1cc(I)cc(I)c1O [ZINC4014104] showed an IC50 (full length USP8; 0.1 µM Ub-Rho) of 11.9 µM and a viability at 24 h, 25 µM (in vitro [2]) of 58.8%.

Compound O=C(NCc1cccc(OCc2ccccn2)c1)c1csc(Br)c1 [ZINC40111866] has a viability at 24 h, 25 µM (in vitro [2]) of 98.9%.

Compound O=C(Nc1ccc([N+](=O)[O-])cc1Cl)c1cc(Cl)ccc1O [Niclosamide] has a viability at 24 h, 27 µM (in vitro [3]) of 50%.

Work on O=C(Nc1cc(Cl)ccc1Cl)c1cc(I)cc(I)c1O [ZINC4014105] yielded a viability at 24 h, 25 µM (in vitro [2]) of 95.7%.

For O=C(CSc1ccccc1F)Nc1cccc(OCc2ccccn2)c1 [ZINC32922917], the viability at 24 h, 25 µM (in vitro [2]) was 101%.

Compound O=C(Nc1ccc(Cl)cc1C(=O)c1ccccc1F)c1ccc(=O)[nH]c1 [ZINC9579366] has a viability at 24 h, 25 µM (in vitro [1]) of 103%.

CC(=O)Oc1c(I)cc(I)cc1C(=O)Nc1ccc(Cl)cc1 [Clioxanide] gave a viability at 24 h, 25 µM (in vitro [3]) of 94.2%.

For O=C(Nc1ccc(Oc2ccc(Cl)cc2)c(Cl)c1)c1cc(I)cc(I)c1O [Rafoxanide], the viability at 24 h, 25 µM (in vitro [2]) was 56.2% and the “AtT-20 cell viability at 25µM, % of control” value (AtT-20) was 39.3%.

With Cc1ccc(C(=O)c2cc(NC(=O)c3cc(I)cc(I)c3O)ccc2Cl)cc1 [ZINC72119086] the viability at 24 h, 25 µM (in vitro [2]) was 109%.

O=C(Nc1cc(Cl)cc(Cl)c1)c1cc(I)cc(I)c1O [ZINC4014253] showed a viability at 24 h, 25 µM (in vitro [2]) of 68%.
